From ChEMBL document CHEMBL4428040, “8-Hydroxyquinolines in medicinal chemistry: A structural perspective” (Eur J Med Chem, 2016)

Assays:
HeLa [1] = assay: Cytotoxicity against human HeLa cells assessed as reduction in cell viability after 48 hrs by resazurin assay; type: functional, cell-based
HeLa [2] = assay: Cytotoxicity against human HeLa cells assessed as reduction in cell viability at 1:1 CuCl2:compound molar ratio after 48 hrs by resazurin assay; type: functional, cell-based
HeLa [3] = assay: Ionophoric activity in human HeLa cells assessed as intracellular metal accumulation at 4.2 uM cotreated with Fe incubated for 6 hrs by ICP-AES analysis relative to control; type: functional
HeLa [4] = assay: Ionophoric activity in human HeLa cells assessed as intracellular metal accumulation at 11.3 uM cotreated with Co incubated for 6 hrs by ICP-AES analysis relative to control; type: functional
HeLa [5] = assay: Ionophoric activity in human HeLa cells assessed as intracellular metal accumulation at 11.3 uM cotreated with Ni incubated for 6 hrs by ICP-AES analysis relative to control; type: functional
HeLa [6] = assay: Ionophoric activity in human HeLa cells assessed as intracellular metal accumulation at 1.8 uM cotreated with Cu incubated for 6 hrs by ICP-AES analysis relative to control; type: functional
HeLa [7] = assay: Growth inhibition of human HeLa cells; type: functional, cell-based
HeLa [8] = assay: Potency index, ratio of CQ IC50 to compound IC50 for human HeLa cells; type: functional
HeLa [9] = assay: Growth inhibition of human HeLa cells in presence of copper; type: functional, cell-based

Row | SMILES | IC50 (HeLa [1]) | IC50 (HeLa [2]) | fold change (FC) (HeLa [3]) | fold change (FC) (HeLa [4]) | fold change (FC) (HeLa [5]) | fold change (FC) (HeLa [6]) | IC50 (HeLa [7]) | Ratio IC50 (HeLa [8]) | IC50 (HeLa [9])
1 | Oc1cccc2ccc(CCc3ccc4cccc(O)c4n3)nc12 | 23.7 µM | 1800 nM | 1.8 | 2.1 | 2.1 | 13.7 | – | – | –
2 | Cc1ccc(OS(=O)(=O)N2CCN(Cc3cc([N+](=O)[O-])c4cccnc4c3O)CC2)cc1 | – | – | – | – | – | – | 710 nM | 26 | 60 nM
3 | Oc1cccc2cccnc12 [OXYQUINOLINE] | 13.5 µM | – | – | – | – | – | – | – | –
